Measured values taken from patent US20190328845A1, “IN VIVO SYNTHESIS OF ELASTIC FIBER” (ALLERGAN PHARMACEUTICALS INTERNATIONAL LIMITED, priority 2011, published 2019).

Experiments:
[1] = tested on: Dermal human fibroblasts; assay: Elastic fiber formation in the presence of lysyl oxidase inhibitor; assay type: cell-based; conditions: BAPN added at various time points relative to tropoelastin addition; 72 hours culture
Method: The effect of the lysyl oxidase inhibitor BAPN on elastic fiber formation in this system was studied.
Dermal human fibroblasts were grown for 12 days prior to tropoelastin addition as described. Cells were cultured for a further 72 hours after tropoelastin addition. BAPN was added at various time points relative to tropoelastin addition. Samples were stained for elastin and nuclei as described above.

[2] = tested on: human skin fibroblasts; assay: In vitro assay system for elastic fiber synthesis, human skin fibroblasts; assay type: cell-based; conditions: 7 days
Method: Cells were cultured in Dulbecco's Modified Eagle Medium High Glucose (DMEM; Invitrogen) containing 10% fetal bovine serum (FBS; Invitrogen) and 1% (v/v) penicillin/streptomycin (Invitrogen). Media were changed every 2-3 days. Cells were incubated at 37° C. and 5% CO2. To assess the capacity of cells to form elastin fibers 1×10^5 cells were seeded onto glass coverslips in 12 well culture plates. Ten to 17 days post-seeding full-length tropoelastin (Elastagen), or an alternative elastin-derived protein, in PBS was filter-sterilized and added to the cell cultures. Alternative elastin-derived proteins included human skin elastin peptides (Elastin Products Company; HSP72), a C-terminal tropoelastin deletion construct ARKRK (Weiss lab) and a C-terminal tropoelastin substitution construct containing RGDS (Weiss lab). Fiber formation was also assessed in the presence of 50 μM blebbistatin (Sigma). For experiments assessing the effect of repeated tropoelastin additions the protein was added 10, 17 and 24 days post-seeding. Cell matrix thickness was determined by averaging the number of 0.41 μm z slices required to image from the uppermost nuclei to the bottom of the sample in ten randomly chosen fields of view.
At set time points after tropoelastin addition, cells were fixed with either 3% (w/v) formaldehyde or 4% (w/v) paraformaldehyde for 20 min and quenched with 0.2 M glycine. […]

Molecule: N#CCCN [BAPN]
- elastic fiber formation in the presence of BAPN [1]: prevents fiber formation

Molecule: Cc1ccc2c(c1)C(=O)C1(O)CCN(c3ccccc3)C1=N2 (stereo not drawn) [blebbistatin]
- elastin fiber formation in the presence of blebbistatin ([2]; 50 μM blebbistatin added at the same time as 125 μg/ml tropoelastin, neonatal fibroblasts): substantially impaired

Molecule: +RGDS
- elastin network formation ([2]; 125 μg/ml protein added to primary human neonatal skin fibroblasts (NHF8909) 12 days post-seeding): Spherule rather than fiber deposition
